For seven molecules, IC50 results are on record in patent US8318719B2, “Inhibitors of Bruton's tyrosine kinase” (Roche Palo Alto LLC, priority 2009, dated 2012).

Molecules are shown by their SMILES.

For the assay, the system named is B cell receptor-mediated activation of B cells in human blood. Description: Inhibition of B cell activation in whole blood measured by CD69 expression. The class given is cell-based. Particulars: anti-IgM stimulation 20 h, concentration decreasing by 50% the percentage of CD69-positive cells that are also CD20-positive. On the procedure:
Inhibition of B Cell Activation in Whole Blood Measured by CD69 Expression
A procedure to test the ability of Btk inhibitors to suppress B cell receptor-mediated activation of B cells in human blood is as follows:
Human whole blood (HWB) is obtained from healthy volunteers, with the following restrictions: 24 hr drug-free, non-smokers. Blood is collected by venipuncture into Vacutainer tubes anticoagulated with sodium heparin. Test compounds are diluted to ten times the desired starting drug concentration in PBS (20×), followed by three-fold serial dilutions in 10% DMSO in PBS to produce a nine point dose-response curve. 5.5 μl of each compound dilution is added in duplicate to a 2 mL 96-well V bottom plate (Analytical Sales and Services, #59623-23); 5.5 μl of 10% DMSO in PBS is added to control and no-stimulus wells. HWB ([…] is added to each well, and after mixing the plates are incubated at 37 C, 5% CO2, 100% humidity for 30 minutes. Goat F(ab′)2 anti-human IgM (Southern Biotech, #2022-14) (10 μl of a 500 μ/mL solution, 50 μg/mL final concentration) is added to each well (except the no-stimulus wells) with mixing and the plates are incubated for an additional 20 hours. At the end of the 20 hour incubation, samples are incubated with florescent-probe-labeled anti-bodies (15 ul PE Mouse anti-Human CD20, BD Pharmingen, #555623, and/or 20 ul APC Mouse anti-Human CD69, BD Pharmingen #555533) for 30 minutes, at 37 C, 5% CO2, 100% humidity. Included are induced control, unstained and single stains for compensation adjustments and initial voltage settings. Samples are then lysed with 1 mL of 1× Pharmingen Lyse Buffer (BD Pharmingen #555899), and plates are centrifuged at 1800 rpm for 5 minutes. Supernatants are removed via suction and the remaining pellets are lysed again with another 1 mL of 1× Pharmingen Lyse Buffer, and plates are spun down as before. Supernatants are aspirated and remaining pellets are washed in FACs buffer (PBS+1% FBS). After a final spin, the supernantants are removed and pellets are resuspended in 180 ul of FACs buffer. Samples are transferred to a 96 well plate suitable to be run on the HTS 96 well system on the BD LSR II flow cytometer. Using appropriate excitation and emission wavelengths for the fluorophores used, data are acquired and percent positive cell values are obtained using Cell Quest Software. Results are initially analyzed by FACS analysis software (Flow Jo). […] The IC50 values are calculated using XLfit software version 3, equation 201.
As usually defined, the IC50 is the concentration needed to halve the response being measured. Read a high IC50 as weaker potency. Molecule `CCN1CCN(c2ccc(Nc3cc(-c4cccc(N5CCOc6cc(C(C)(C)C)ccc6C5=O)c4CO)cn(C)c3=O)nc2)CC1` [II-3, 8-tert-Butyl-4-(3-{5-[5-(4-ethyl-piperazin-1-yl)-pyridin-2-ylamino]-1-methyl-6-oxo-1,6-dihydro-pyridin-3-yl}-2-hydroxymethyl-phenyl)-3,4-dihydro-2H-benzo[f][1,4]oxazepin-5-one] returned an IC50 of 8 nM. Molecule `CN1CCN(c2ccc(Nc3cc(-c4cccc(N5CCNc6cc(C(C)(C)C)ccc6C5=O)c4CO)cn(C)c3=O)nc2)CC1` [Compound I-4, 8-tert-Butyl-4-(2-hydroxymethyl-3-{1-methyl-5-[5-(4-methyl-piperazin-1-yl)-pyridin-2-ylamino]-6-oxo-1,6-dihydro-pyridin-3-yl}-phenyl)-1,2,3,4-tetrahydro-benzo[e][1,4]diazepin-5-one] showed an IC50 of 38 nM. In the case of `Cn1cc(-c2cccc(N3CCNc4cc(C(C)(C)C)ccc4C3=O)c2CO)cc(Nc2ccc(C(=O)N3CCOCC3)cn2)c1=O` [Compound I-3, 8-tert-Butyl-4-(2-hydroxymethyl-3-{1-methyl-5-[5-(morpholine-4-carbonyl)-pyridin-2-ylamino]-6-oxo-1,6-dihydro-pyridin-3-yl}-phenyl)-1,2,3,4-tetrahydro-benzo[e][1,4]diazepin-5-one], 18 nM corresponded to half-maximal inhibition (IC50). Take `Cn1cc(-c2cccc(N3CCNc4cc(C5CC5)ccc4C3=O)c2CO)cc(Nc2ccc(N3CCOCC3)cn2)c1=O` [Compound I-2, 8-Cyclopropyl-4-{2-hydroxymethyl-3-[1-methyl-5-(5-morpholin-4-yl-pyridin-2-ylamino)-6-oxo-1,6-dihydro-pyridin-3-yl]-phenyl}-1,2,3,4-tetrahydro-benzo[e][1,4]diazepin-5-one]: the half-inhibitory concentration (IC50) was 96 nM. For the molecule `CN1CCN(c2ccc(Nc3cc(-c4cccc(N5CCOc6cc(C(C)(C)C)ccc6C5=O)c4CO)cn(C)c3=O)nc2)CC1` [II-2, 8-tert-Butyl-4-(2-hydroxymethyl-3-{1-methyl-5-[5-(4-methyl-piperazin-1-yl)-pyridin-2-ylamino]-6-oxo-1,6-dihydro-pyridin-3-yl}-phenyl)-3,4-dihydro-2H-benzo[f][1,4]oxazepin-5-one], the IC50 came out at 4 nM. In the case of `Cn1cc(-c2cccc(N3CCNc4cc(C5CC5)ccc4C3=O)c2CO)cc(Nc2ccc(C(=O)N3CCOCC3)cn2)c1=O` [Compound I-1, 8-Cyclopropyl-4-(2-hydroxymethyl-3-{1-methyl-5-[5-(morpholine-4-carbonyl)-pyridin-2-ylamino]-6-oxo-1,6-dihydro-pyridin-3-yl}-phenyl)-1,2,3,4-tetrahydro-benzo[e][1,4]diazepin-5-one] it was 111 nM; in that of `Cn1cc(-c2cccc(N3CCOc4cc(C(C)(C)C)ccc4C3=O)c2CO)cc(Nc2ccc(C(=O)N3CCOCC3)cn2)c1=O` [II-1, 8-tert-Butyl-4-(2-hydroxymethyl-3-{1-methyl-5-[5-(morpholine-4-carbonyl)-pyridin-2-ylamino]-6-oxo-1,6-dihydro-pyridin-3-yl}-phenyl)-3,4-dihydro-2H-benzo[f][1,4]oxazepin-5-one], 16 nM.
